Assay results taken from patent publication US20170281611A1, “QUINOLINES AND THEIR USE FOR TREATING ENDOPLASMIC RETICULUM STRESS-CAUSED DISEASES” (EIGER BIOPHARMACEUTICALS, INC., priority 2014, published 2017).

Assays:
PS1/APP mice = assay: Alzheimer's disease model, 2-photon Ca2+ imaging of CA1 pyramidal neurons in brain slices; assay type: in vivo, mouse; settings: 10 mg/kg IP for 4 weeks, vs saline
Source text: PS1/APP mice (PS1M146V and APPSWE) (Howlett et al., Brain Res. 2004, 1017, 130-136) were used. Age-matched NTg controls were on the same background strain (C57bl6/J9).
Mice were deeply anesthetized with halothane and rapidly decapitated. The brains were extracted rapidly and 300 or 400 μm-thick transverse hippocampal slices were cut with a vibrating microtome into ice-cold oxygenated artificial cerebrospinal fluid (aCSF) with the following composition (in mM): 125 NaCl, 2.5 KCl, 1.25 KH2PO4, 1.2 MgSO4, 2 CaCl2, 10 dextrose, and 25 NaHCO3.
Ca^2+ imaging within individual neurons was performed in brain slice preparations using a custom-made video-rate multiphoton-imaging system based on an upright Olympus BX51 microscope frame. […] Emitted fluorescence light was detected by a wide-field photomultiplier (Electron Tubes) to derive a video signal that was captured and analyzed by Video Savant 5.0 software (IO Industries). […] For clarity, results are expressed as inverse ratios so that increases in [Ca^2+] correspond to increasing ratios. The % change is calculated as […], where F is the average resting fluorescence at baseline and ΔF is the decrease of fluorescence reflecting Ca release. Differences between drug- and saline-treated groups were assessed using two-way ANOVA and Scheffe post hoc analysis for significance (p<0.05). […]

SERCA = assay: Ca-ATPase assay, microsomal preparations from HEK 293 cells; assay type: biochemical, human
Method: A Ca-ATPase assay was performed using microsomal preparations from HEK 293 cells at a series of calcium concentrations corresponding to the physiological range, relative to controls. The ATP hydrolysis rate was measured over a range of calcium concentrations in the presence of test compounds using an NADH-linked, enzyme-coupled ATPase assay adapted for 96-well microplates, with Vmax determined by fitting the ATPase calcium-dependence to the Hill function. […] CaCl2 was added to set free [Ca^2+] to the specific values.

[1] = system: HeLa cells overexpressing BI-1; assay: Effect on [Ca2+]ER, ER cameleon in HeLa cells overexpressing BI-1; assay type: cell-based; settings: HeLa cells overexpressing BI-1, treated 24 hrs
Method: To directly measure ER Ca^2+ content, a genetically encoded Ca^2+ indicator, ER cameleon, was used. HeLa cells were transfected with ER-cameleon encoding plasmid for 2 days before analysis. Cells were treated with a test compound for 24 hrs and imaged in Ca^2+-free HBSS upon addition of thapsigargin to deplete ER stores. Emission ratio imaging of the ER cameleon was accomplished using a 430/24 excitation filter, 450-nm dichroic mirror, and two emission filters (475/40 for CFP and 535/25 for YFP). The fluorescence ratio of YFP/CFP is a measure of relative ER Ca^2+ levels.

[2] = system: 6-OHDA lesioned Wistar rats; assay: Rat unilateral 6-OHDA model of Parkinson's disease, stepping test; assay type: in vivo; settings: D11, 10 mg/kg IP once daily for 15 days; 6-OHDA/Vehicle 1.19±0.24 steps
Method: (§1) Fifty adult male Wistar rats were used. The rats from different groups (G1 to G5) were randomized. At the beginning of the study, the rats were about 5 weeks old and naive to previous administration of any drug.
(§2) A stereotaxic injection of 6-OHDA (G2 to G5) or saline (G1: sham group) was performed to induce a unilateral dopaminergic lesion on day 0 (D0). Surgery was performed on D0 under ketamine (50 mg/kg) and xylazine (10 mg/kg). The rats of G2 to G5 received a unilateral injection of 6-OHDA (6 μL) in the left substantia nigra pars compacta. Jouve et al., J. Neurosci. 2010, 30, 9919-9928. The rats of the G1 sham group were injected with saline. During surgery, local analgesia was achieved using subcutaneous injections of lidocaine. At the end of surgery, the rats were treated with buprenorphine (0.05 mg/kg, S.C.).
The stepping test was performed after IT test, both before the 6-OHDA lesion induction on D0 and on D11. Around D−6, the stepping test was performed eight consecutive times for the right paw of each animal to obtain baseline values. On D11, the stepping test was performed one hour after the rats were dosed. Each rat was hold by an experimenter and only one of the two forelimbs was left free to move above a plane surface and the other was held with the paw touching the table. The rats were then to be moved slowly forward by the experimenter. The number of adjusting steps was countered for the right paw. Olsson et al., J. Neurosci. 1995, 15, 3863-3875.
L-DOPA and benserazide (a peripheric DOPA decarboxylase inhibitor) were prepared together as a single solution containing 0.9% NaCl and 0.1% ascorbic acid.
All the dosings were given via the IP route, once daily, Sunday excluded.

ob/ob mice = assay: Effect of a SERCA agonist on the level of blood glucose; assay type: in vivo, mouse; settings: 10 or 50 mg/kg i.p. once a day for 5 days
Method: Fasting glucose was measured at baseline and 10 hours after the administration of the test compound. Glucose levels were measured in blood samples drawn from the tail vein using the OneTouch Ultra 2 Meter (LifeScan, Inc.).

[3] = system: 6-OHDA lesioned Wistar rats; assay: Rat unilateral 6-OHDA model of Parkinson's disease, initiation time (IT) test; assay type: in vivo; settings: D11, 10 mg/kg IP once daily for 15 days, t test, vs 6-OHDA/Vehicle
Method: as §1, §2
The IT test was performed both before the 6-OHDA lesion induction on D0 and on day 11 (D11) after the 6-OHDA lesion induction. Around six days (D−6) before the 6-OHDA lesion induction, the IT test was performed eight consecutive times for each limb of each rat to obtain baseline values. On D11, the IT test was performed one hour after the rats were dosed. For every test, only one of the two forelimbs of each rat was left free to move and the time that is necessary to initiate the movement toward a plane surface was recorded using 180 sec as break-off point. […]

Cc1ccc2cccc(NC(=O)c3ccc(OC(C)C)cc3)c2n1 [Compound A12, 4-Isopropoxy-N-(2-methylquinolin-8-yl)benzamide]
ER Ca2+ signaling (RyR-Ca2+ response to caffeine) (PS1/APP mice): restores ER Ca^2+ signaling | Vmax of a SERCA (SERCA): significantly increased | [Ca2+]ER [1]: significantly restored | number of adjusting steps [2]: 6.94±0.86 steps | fasting blood glucose (ob/ob mice): significantly lowered blood glucose as early as day 2 | maintenance of lower glucose level after last injection (ob/ob mice): maintained a lower glucose level, to a level identical to lean mice, for over a week after the last injection | akinesia measured in the IT test [3]: statistically significant improvement
